The record followed here is patent US20090054507A1, “CONTROL OF MALIGNANT CELLS BY KINASE INHIBITION” (CLEVELAND STATE UNIVERSITY, priority 2006, published 2009).

In one data set the test system is MEG-01 cells. The experiment in a line: Annexin V-FITC and PI apoptosis assay, MEG-01. The class given is cell-based, human. The protocol:
Flow cytometric analysis. Cells were analyzed using a FACSCalibur flow cytofluorometer (Becton-Dickinson), with CellQuestPro ver. 3.3 software. The data was further analyzed with FlowJo ver. 6.2, and WinMDI 2.8 software. Proper gating was performed to characterize each cell population (MEG-01 cells and platelets). The population that corresponds to platelets (small, granulated particles), is PI negative because thrombocytes are anucleated cells (only the viable cells were considered) and were distinguished by their capacity to become activated, undergoing shape change in response to agonist and to show phosphatidylserine (PS) exposure when activated. Platelets were further separated from the megakaryocytic cells, by differential centrifugation, considering the size difference between these cell populations (1-5 μm for platelets and 35-150 μm for megakaryocytic cell line MEG-01) and analyzed separately. Voltage and channels settings were adjusted accordingly. Analyzed values were obtained with WinMDI ver. 2.8.
Apoptosis Assays using Flow Cytometry with Annexin V-FITC and propidium iodide (PI). For induction of typical apoptosis, cells were grown in the presence of 1 μM staurosporine (Sigma-Aldrich) for 6 hours. The staurosporine treated cells were stained as follows: control 1 with PI, control 2 with Annexin V-FITC and control 3 both PI and Annexin V-FITC in order to have the brightest controls for compensation and proper collection of the flow cytometry data. Cell necrosis was induced by heat shock (65° C. for 30 minutes). The stained control, both PI and Annexin V-FITC labeled, was then used as the reference in establishing the level of apoptosis induced by the treatments. Data was collected on logarithmic modes, two-colors. Annexin V-FITC corresponds to FL1 H channel, and PI to FL3H or FL2H channels.
Annexin V-FITC and PI apoptosis assay staining protocol. Apoptosis Annexin V-FITC and PI kit from BD Biosciences, CA, USA, was used. 10^5-10^6 cells were stained with 50 μg/ml PI and with 0.5 μg/ml FITC-labeled Annexin V using the staining protocol provided by the supplier. Samples were then analyzed immediately by flow cytometry.

Another data set concerns MEG-01 xenografts. The experiment in a line: Tail-bleeding assay in MEG-01 xenograft mice. The data set is classed as in vivo. To be noted: DMAT treated xenograft mice vs normal mice or control mice. On the procedure: At the end of the trial, tail-bleeding times assay was performed and blood was collected for blood counts from live and anesthetized mice. After these experiments were completed mice were sacrificed and tumors and organs were collected. Samples were fixed in formalin for further processing.
Tail-bleeding assay. Tail-bleeding times are important to investigate whether the platelets could establish hemostasis in vivo. Platelet aggregation and clot retraction in response to physiologic agonists adenosine diphosphate (ADP), epinephrine, and thrombin will affect tail-bleeding times.
Normal tail-bleeding times are an average of 1.5-2 minutes in C57BL mouse strain.
Pre-warm tubes of saline (PBS) at 37° C. and maintained at this temperature during the measurements were used. Inhalation of isoflurane vapor or, alternatively, intraperitoneal injection of avertin was used to induce general anesthesia. Using a sharp new razor or scalpel blade, tails were cut exactly 0.5 cm of the distal tip of the tail of the adult mouse and immediately inserted into the pre-warmed tube of saline. A stopclock was started at this time. The tail was hold gently, near its base, to avoid a “tourniquet effect.” Venous blood flowing into the tube can be observed and can it can be detected when this bleeding stops. The stopclock provides an accurate bleeding time.

The subject of the next data set is MCF-7 xenografts. The experiment in a line: In vivo therapy of MCF-7 xenografts, tumor volume. The arrangement: species or system mice. The text has this: (§1) Creation of the xenografts MCF-7, SW-480 and WM-164. Immunodeficient male and female athymic nude nu/nu mice were used, provided and housed by Dr. Lindner, DJ from Taussig Cancer Center, Cleveland Clinic and Case Western Reserve University. Mice were checked every day. Mice were housed in filtered air flow cabinets with autoclaved bedding at a density of 5 mice/cage. They were fed autoclaved Purina Lab Rodent Chow® 5010 and HCl-acidified distilled water ad libitum and were placed in rooms with controlled temperature, humidity and 12-hr light-dark cycles. Procedures involving animals and their care were conducted in conformity with the institutional guidelines that are in compliance with national and international laws and policies (EEC Council Directive 86/609, OJL 358, Dec. 1, 1987, and the National Institutes of Health Guide for the Care and Use of Laboratory, Animals, NIH Publication 85-23, 1985).
(§2) For engraftment, cells in cell culture media were injected. […] Cells were counted with a hemacytometer using Trypan blue (only live cells were counted). […]
In vivo therapy with DMAT of MCF-7 xenografts. […] Tumor diameters were measured using a caliper and tumor volume was calculated using the prolate-spheroid formula. […]

For another data set, the system named is SW-480 xenografts. The experiment in a line: In vivo therapy of SW-480 xenografts, tumor volume. The arrangement: species or system mice.
Source text: as §1, §2
In vivo therapy with DMAT of SW-480 xenografts. […] Tumor diameters were measured using a caliper and tumor volume was calculated using the prolate-spheroid formula. […]

For `CN(C)c1nc2c(Br)c(Br)c(Br)c(Br)c2[nH]1` [DMAT, 2-dimethylamino-4,5,6,7-tetrabromo-1H-benzimidazole], the “cytotoxicity (necrosis) in MEG-01 cells” value with MEG-01 cells is reported as “without being cytotoxic”. For the same molecule, in the data set with MEG-01 cells (20 μM DMAT, 24 hours, control untreated 0.87%), the “level of necrotic cells” value worked out at 0.39%. In addition, in the data set with MEG-01 cells (20 μM DMAT, 24 hours, control untreated 8.7%), the “level of apoptotic cells” value was found to be 19%. Moreover, in the data set with MEG-01 cells (24 to 96 hours), the “dose and time dependence of induced apoptosis and phenotype change” value is “dose and time dependent”. For the same molecule, the tail bleeding times result in the data set with MEG-01 xenografts is reported as “in certain instances, longer”. Moreover, the tumor volume result with MCF-7 xenografts (DMAT 10 mg/kg (in DMSO) per day, 13 day period, control about 50 to about 1750 mm^3) is “remarkably stable size and nearly no increase”; in the data set on SW-480 xenografts (DMAT 40 mg/kg (in DMSO) per day, thirteen days, control about 260 to about 1800 mm^3), “only a minor increase in tumor volume”. In addition, the “response of xenograft tumors to treatment (summary)” value was “tumor ablation” in the data set with MCF-7 xenografts (mouse, in vivo) and “significant reduction in tumor volume” with SW-480 xenografts (small tumors remained at the end of the treatment).
